From US8008093B2, “Inhibition of Hsp27 phosphorylation for the treatment of blistering disorders” (The University of North Carolina at Chapel Hill, priority 2004, dated 2011)
“Also recorded” adds a separate entry of the source.

Experiments:
p38MAPK = p38MAPK phosphorylation in mouse skin extracts, immunoblot; assay type: in vivo; settings: PV IgG 1.0 mg IgG/g intradermally; SB202190 6.25 μg twice; skin biopsies after 18 hours
From the text: FIG. 7A is an immunoblot showing LDH control, PV IgG, and PV IgG+SB202190 first equally loaded on and separated by SDS-PAGE, transferred to PVDF, and immunoblotted with antibodies to p38MAPK, phospho-p38MAPK or lactate dehydrogenase (LDH) as a loading control. Blots were developed by ECL reaction (Amersham, Piscataway, N.J., United States of America).
FIG. 7B is a bar graph illustrating signal intensity from the ECL reaction for each band from the immunoblot of FIG. 7A, quantified with a GeneGnome™ scanner (Syngene Bio Imaging, Frederick, Md., United States of America) using GeneSnap™ software (n=3, S.D. shown by error bars).

keratinocytes = assay: Keratin and actin reorganization in keratinocytes, confocal microscopy; assay type: cell-based, human; settings: 25 μM PV IgG 6 hrs at 37° C.; SB202190 100 μM preincubated 60 mins
Procedure: FIGS. 5A-5C are data showing that PV IgG induced cytoskeletal reorganization can be prevented by inhibiting p38MAPK. […] Cells were stained with the indicated antibodies or fluorescein-phalloidin and analyzed by confocal microscopy.
At 37° C. Cells were fixed and stained with flourescein conjugated phalloidin (Molecular Probes, Eugene, Oreg., United States of America), pancytokeratin antibodies (clone AE1/AE3, Zymed, San Francisco, Calif., United States of America), or goat anti-human E-cadherin antibodies (R & D Systems, mc, Minneapolis, Minn., United States of America) as previously described (Hu et al., (2001) Experimental Nephrology 9, 156-164), followed by Cy2 and Cy3 conjugated secondary antibodies (Jackson Laboratories, West Grove, Pa., United States of America). Images were analyzed using a Leica SP2 AOBS confocal microscope (Leica, Bannockburn, Ill., United States of America) with an excitation wavelength of 488 nm and capture at 500-550 nm or an excitation wavelength of 561 nm and capture at 590-650 nm using a 63×objective with NA 1.4. Double labeled samples were checked for bleed though by turning off the longer wavelength laser and assaying for the absence of image. For 3 dimensional image reconstructions, serial sections were scanned at 0.244 μm and rendered using the program Volocity Version 3 (Improvision, Lexington, Mass., United States of America).

[1] = system: epidermal keratinocyte cell membranes; assay: Direct immunofluorescence of perilesional skin for bound PV IgG; settings: direct immunofluorescence of mouse skin, PV IgG+SB202190 vs PV IgG
From the text: Perilesional skin biopsies were examined by direct immunofluorescence for the presence of PV IgG bound to the epidermal epithelium.

HSP25 = HSP25 phosphorylation in mouse skin extracts, 2D immunoblot; assay type: in vivo; settings: PV IgG 1.0 mg IgG/g intradermally; SB202190 6.25 μg twice; skin biopsies after 18 hours
Procedure: Skin biopsies were obtained after 18 hours of treatment and extracted in IEF lysis buffer.
FIG. 7C is an autoradiogram of an immunoblot showing cell extracts (30 μg) prepared and separated in the first dimension using 7 cm pH 4-7, non-linear IPGphor strips (Amersham Biosciences, Inc.) and in the second dimension by 10% SDS-PAGE followed by immunoblotting with antibodies to murine HSP25 using methods known in the art (see Berkowitz et al. (2005) J Biol Chem 280, 23778-23784). […] P values were calculated using student's T-test.

neonatal C57BL/6J mice = assay: Passive transfer PV mouse model, blister formation; assay type: in vivo
From the text: The passive transfer PV mouse model developed by Anhalt and Diaz (Anhalt, et al. (1992) New England Journal of Medicine 306, 1189-1196) was used to test the hypothesis that p38MAPK inhibitors can block blister formation in vivo. In this model, the IgG fraction from patients and control non-affected normal individuals was purified and passively transferred into neonatal mice (Anhalt, et al. (1992) New England Journal of Medicine 306, 1189-1196; Rock, et al. (1990) J of Clinical Investigation 85, 296-299).
For in vivo inhibitor studies, the mice were injected intradermally with PV and normal IgG (1.0 or 1.5 mg/gram body weight) as disclosed in Mascaro et al. (Clin Immunology & Immunopathology 85, 90-96 (1997)). The P38 MAPK inhibitors were administered intradermally in two doses. In the first dose, 6.25 μg SB202190 was administered two hours prior to intradermal injection of IgG. In the second dose, 6.25 μg SB202190 was mixed with PV or control IgG and injected intradermally. Each animal received a total inhibitor dose of 12.5 μg.

HSP27 = assay: PV IgG induced HSP27 phosphorylation in keratinocytes, immunoblot; settings: preincubated 60 mins at 37° C. with inhibitor, then 25 μM PV IgG 30 mins
Procedure: Cells were preincubated for 60 minutes at 37° C. with the p38MAPK inhibitors SB202190 or SB203580, the protein kinase C inhibitors Calphostin C or H-7, or the phospholipase C inhibitor U-73122. PV IgG (25 μM) was then added and the cells were incubated for 30 mins at 37° C., and harvested in IEF lysis buffer. Extracts were separated on 10% SDS-PAGE gels followed by immunoblotting with anti-HSP27 and anti-phosphoHSP27 antibodies.
For inhibition studies, keratinocytes were preincubated for 60 mins at 37° C. with the p38MAPK inhibitors SB202190 (100 μM) or H-7 (10 μM), or the phospholipase C inhibitor U-73122 (4 μM), after which PV IgG was added to a final concentration of 25 μM, the cells incubated for 30 mins at 37° C., and harvested in IEF lysis buffer.

[2] = PV IgG intradermally, SB202190 two doses of 6.25 μg intradermally, after 18 hours
[3] = histology, PV IgG intradermally, SB202190 two doses of 6.25 μg intradermally, after 18 hours

Oc1ccc(-c2nc(-c3ccc(F)cc3)c(-c3ccncc3)[nH]2)cc1 [SB202190, 4-(4-Fluorophenyl)-2-(4-hydroxyphenyl)-5-(4-pyridyl)1H-imidazole]
p38MAPK phosphorylation in skin extracts (p38MAPK): prevented; also recorded: blocked | actin reorganization (phalloidin staining) (keratinocytes): similarly prevented; also recorded: inhibited | keratin filament retraction (keratinocytes): prevented | effect on binding of PV autoantibodies to epidermal keratinocyte cell surface [1]: did not prevent or alter the binding; also recorded: does not prevent binding | phosphorylation of the most negatively charged HSP25 isoform in skin extracts (HSP25): inhibited; also recorded: blocked | suprabasal acantholysis leading to blister formation (neonatal C57BL/6J mice; PV IgG 1 mg IgG/g body weight, skin biopsies, hematoxylin and eosin): blocked | Nikolsky's sign (neonatal C57BL/6J mice; PV IgG 1.5 mg IgG/gram body weight intradermally, examined 18 hours later): negative Nikolsky's sign | blister development, clinically and histologically (neonatal C57BL/6J mice; PV IgG 1.0 or 1.5 mg/gram body weight intradermally, SB202190 total 12.5 μg, after 18 hours): failed to develop blisters | Numbers of Mice with Nikolsky Sign: Nikolsky Negative (neonatal C57BL/6J mice; [2]): 11 | Numbers of Mice with Nikolsky Sign: Nikolsky Positive (neonatal C57BL/6J mice; [2]): 1 | Numbers of Mice with Suprabasilar Acantholysis: Blisters Present (neonatal C57BL/6J mice; [3]): 1 | Numbers of Mice with Suprabasilar Acantholysis: No Blisters (neonatal C57BL/6J mice; [3]): 11

COc1ccc2c(c1)CC[C@@H]1[C@@H]2CC[C@]2(C)[C@@H](NCCCCCCN3C(=O)C=CC3=O)CC[C@@H]12 [U-73122]
inhibition of PV IgG induced HSP27 phosphorylation (HSP27): No notable inhibition

Calphostin C
inhibition of PV IgG induced HSP27 phosphorylation (HSP27): No notable inhibition

CC1CNCCN1S(=O)(=O)c1cccc2cnccc12 (stereo not drawn) [H-7]
inhibition of PV IgG induced HSP27 phosphorylation (HSP27): No notable inhibition
